Data from patent US20210038579A1, “Treatment Of Patients With Classic Fabry Disease” (Amicus Therapeutics, Inc., priority 2018, published 2021).
Positions count from the first letter of the chain named.

Columns and labels:
[1] = Phase 3 study, ERT-naïve Fabry patients: renal function assessment (eGFRCKD-EPI, mGFRiohexol); type: in vivo, human
Method: Patient Enrollment. […] Study Design. […] Renal Function Assessment. Annualized rates of change (mL/min/1.73 m^2/year) were calculated using Chronic Kidney Disease Epidemiology Collaboration-[…]) and measured iohexol clearance-mGFRiohexol). For all outcomes except GL-3 inclusions per kidney interstitial capillary, data are pooled for patients within phenotype subgroups regardless of treatment allocation for the first six months (migalastat or placebo).

[2] = Phase 3 study, ERT-naïve Fabry patients: safety analysis and adverse events
Method: Study Design. Following eligibility-baseline assessments (2 months), patients were randomized to Stage 1—6 months of double-blind administration of 150 mg migalastat hydrochloride or placebo every other day. All patients completing Stage 1 were eligible to receive open-label migalastat in Stage 2 (months 6-12) and for an additional year (months 13-24) thereafter. […] Study completers were eligible to enroll in the open-label extension study for up to 5 years.
Safety Analysis and Adverse Events. Randomized patients receiving ≤1 dose were included in the safety analysis, which comprised vital signs, physical exams, electrocardiograms, clinical labs, and adverse events.

[3] = target: T1, α-Gal A mutant form p.Phe 295Cys (c.884 T > G) (Homo sapiens, UniProt P06280, F295C); assay: HEK assay: α-Gal A activity in HEK-293 cell lysate with migalastat; type: cell-based
T1 construct: expressed in transfected cells; host or cells: HEK-293
T1 sequence (P06280 32-429 F295C): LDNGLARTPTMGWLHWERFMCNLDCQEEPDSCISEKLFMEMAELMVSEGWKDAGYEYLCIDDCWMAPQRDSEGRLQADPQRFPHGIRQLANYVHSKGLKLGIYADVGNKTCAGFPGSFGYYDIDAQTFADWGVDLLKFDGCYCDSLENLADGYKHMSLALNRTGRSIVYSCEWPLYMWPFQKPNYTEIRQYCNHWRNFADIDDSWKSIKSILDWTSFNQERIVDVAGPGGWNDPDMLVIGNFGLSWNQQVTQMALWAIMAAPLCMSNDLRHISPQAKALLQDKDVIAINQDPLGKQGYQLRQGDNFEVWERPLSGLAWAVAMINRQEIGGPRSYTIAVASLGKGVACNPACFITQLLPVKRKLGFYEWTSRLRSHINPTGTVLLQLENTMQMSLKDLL
Summary of the method: (§1)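 Transient HEK-293 expression of mutant α-Gal A; ±migalastat 17 nM–1 mM, 4–5 d; lysate α-Gal A by 4-MU-α-Gal fluorescence or western blot.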

[4] = target: T2, α-Gal A mutant form p.Pro293Thr (c.877 C > A) (Homo sapiens, UniProt P06280, P293T); assay: as above; type: cell-based
T2 construct: expressed in transfected cells; host or cells: HEK-293
T2 sequence (P06280 32-429 P293T): T1 sequence (P06280 32-429 F295C) with P262T, C264F
Summary of the method: as §1

α-Gal A mutant forms = assay: HEK assay: means over groups of GLA mutations found in enrolled patients; type: cell-based, human; settings: 10 μM of migalastat
Method: Such mutations are also referred to herein as “HEK assay amenable” mutations.
In this assay, cDNA constructs are created. The corresponding α-Gal A mutant forms are transiently expressed in HEK-293 cells. Cells are then incubated±migalastat (17 nM to 1 mM) for 4 to 5 days. After, α-Gal A levels are measured in cell lysates using a synthetic fluorogenic substrate (4-MU-α-Gal) or by western blot. This has been done for known disease-causing missense or small in-frame insertion/deletion mutations.

[5] = system: GL-3 inclusions per kidney interstitial capillary; assay: Phase 3 study, ERT-naïve Fabry patients: kidney histology assessment; type: in vivo, human
Source text: Kidney Histology Assessment. Each patient underwent a baseline kidney biopsy, as well as repeat kidney biopsies at 6 and 12 months. The number of GL-3 inclusions per kidney interstitial capillary per patient at baseline, and at 6 and 12 months was quantitatively assessed in 300 capillaries by 3 independent pathologists blinded to treatment and visit. All values for each individual biopsy at a given time were averaged prior to statistical analysis.
Statistical Analyses for Kidney Interstitial Capillary GL-3 Substrate. The primary Stage 1 (6 month) endpoint (i population with baseline biopsies, n=64) was the proportion of patients in the migalastat and placebo groups with a ≥50% reduction in GL-3 inclusions per kidney interstitial capillary. Two other Stage 1 endpoints were assessed (modified-ITT population: randomized patients with paired baseline and month 6 biopsies; n=60): percent change in GL-3 inclusions per kidney interstitial capillary, and percent of interstitial capillaries with zero GL-3 inclusions.
Efficacy analyses for GL-3 inclusions per kidney interstitial capillary and other pre-specified endpoints in Stage 2 (months 6-12) and the open-label-extension (months 12-24) were based on the modified intention to treat (mITT)—population consisting of randomized patients with mutant α-Gal A enzyme shown to be suitable for migalastat treatment by the validated assay; n=50).
For all outcomes except GL-3 inclusions per kidney interstitial capillary, data are pooled for patients within phenotype subgroups regardless of treatment allocation for the first six months (migalastat or placebo).

[6] = overall amenable population, baseline to month 24
[7] = open-label-extension, 6/57 patients
[8] = +10 μM migalastat, HEK-293 cell lysate, mean ± SEM, n = 20
[9] = HEK293, 10 μM migalastat minus baseline, read-out: Absolute increase at 10 μM (% WT)
[10] = GLA mutations of enrolled patients reported as associated with the classic phenotype in the literature

OC[C@H]1NC[C@H](O)[C@@H](O)[C@H]1O [migalastat]
mean (SD) annualized rate of change in eGFRCKD-EPI ([1]; classic male subgroup, baseline (or month 6 for patients randomized to placebo) to month 24, 150 mg migalastat hydrochloride every other day): −0.3 (3.76) mL/min/1.73 m^2
mean (SD) annualized rate of change in mGFRiohexol ([1]; classic males, baseline (or month 6) to month 24): −3.0 (6.04) mL/min/1.73 m^2
median change in mGFRiohexol ([1]; classic males, baseline to month 24): -1.03 mL/min/1.73 m²
reduction in mGFRiohexol in one classic patient ([1]; one classic patient, month 6 to month 24): -16 mL/min/1.73 m²
mean (SD) annualized rate of change in eGFRCKD-EPI ([1]; other patients subgroup, baseline (or month 6) to month 24): −0.3 (4.47) mL/min/1.73 m^2
mean (SD) annualized rate of change in mGFRiohexol ([1]; other patients, baseline (or month 6) to month 24): −1.0 (6.66) mL/min/1.73 m^2
median change in mGFRiohexol ([1]; other patients, baseline to month 24): -0.34 mL/min/1.73 m²
annualized change in eGFRCKD-EPI [1, 6]: −0.3 (0.66) mL/min/1.73 m^2
annualized change in mGFRiohexol [1, 6]: −1.5 (1.33) mL/min/1.73 m^2
patients with nasopharyngitis ([2]; Stage 1, 6/34 patients receiving migalastat): 18%
patients with headache ([2]; Stage 1, 12/34 patients receiving migalastat): 35%
patients experiencing serious adverse events ([2]; Stage 1, migalastat group): 2 patients
patients experiencing serious adverse events ([2]; Stage 2): 5 patients
patients with procedural pain (related to kidney biopsies) ([2]; Stage 2, 7/63 patients): 11%
patients with headache ([2]; Stage 2, 9/63 patients): 14%
end-stage renal disease, cardiac death, stroke ([2]; as defined in Banikazemi et al.): no progression to end-stage renal disease, no cardiac death and no stroke
patients who discontinued migalastat due to serious adverse events ([2]; both deemed unrelated to migalastat): Two
serious adverse events assessed as possibly related to migalastat by the investigator ([2]; fatigue and paresthesia, same patient, months 12-24, resolved): Two
adverse events leading to migalastat discontinuation ([2]; human, in vivo): No adverse events led to migalastat discontinuation
vital sign, physical findings, laboratory, and ECG parameters ([2]; human, in vivo): did not reveal any clinically relevant effect
transient ischemic attack ([2]; judged unrelated to migalastat): single case
severity of adverse events ([2]; most adverse events): mild or moderate in severity
patients experiencing serious adverse events ([2]; open-label-extension): 11 patients
patients with (treatment-emergent) proteinuria ([2]; open-label-extension (months 12-24), 9/57 patients): 16%
patients with bronchitis [2, 7]: 11%
patients with headache [2, 7]: 11%
patients in whom 24-hour urine protein remained stable during migalastat treatment ([2]; patients with baseline proteinuria <300 mg/24-h): 23/28
α-Gal A activity at 10 μM (fold over baseline) ([3]; 10 μM migalastat): 4.22 fold over baseline
+Migalastat α-Gal A activity [3, 8]: 5051 ± 190 nmol/mg/h
+Migalastat α-Gal A activity % WT [3, 8]: 14.5 ± 0.6 % WT
activation at 10 µM [3, 9]: 11.1%
α-Gal A activity at 10 μM (fold over baseline) ([4]; 10 μM migalastat): 19.60 fold over baseline
+Migalastat α-Gal A activity [4, 8]: 4488 ± 327 nmol/mg/h
+Migalastat α-Gal A activity % WT [4, 8]: 13.3 ± 1.1 % WT
activation at 10 µM [4, 9]: 12.7%
mean absolute increase in α-Gal A activity (α-Gal A mutant forms; [10]): 24.8 % of WT
mean activity increase over baseline (α-Gal A mutant forms; [10]): 8.2 fold over baseline
mean absolute increase in α-Gal A activity (α-Gal A mutant forms; all other mutations): 24.5 % of WT
mean activity increase over baseline (α-Gal A mutant forms; all other mutations): 6.8 fold over baseline
mean (SD) change in GL-3 inclusions per kidney interstitial capillary ([5]; classic male patients switched from placebo to migalastat at month 6, next 6 months): −0.7 (0.91)
mean change in GL-3 inclusions ([5]; total amenable patient population, 6 months of migalastat treatment): −0.25
mean change in GL-3 inclusions ([5]; total patient population, after switching from placebo to migalastat at month 6): −0.33
